The source of these data is PMC12930396, “Positive modulators of N-methyl-D-aspartate receptor: structure–activity relationship study on steroidal C-17 and C-20 oxime ethers” (RSC Advances, 2026).

Data set [1] addresses T1, GluN1/GluN2B receptors (Rattus norvegicus, UniProt P35439+Q00960).
T1 construct: expressed in transfected cells; host or cells: HEK293 cells (ATCC No. CRL-1573)
Also noted: method as in PMID 29708744. The following applies: reference compound PES; cited from earlier work.

Data set [2] can be described thus: Thermodynamic solubility in PBS pH 7.4. In kind it is physicochemical. The following applies: 20 °C, pH 7.4, aqueous buffer, thermodynamic from solid. The protocol: The reference samples were prepared as follows: a weight corresponding to 2.5 µmol was dissolved in 250 µL of DMSO, resulting in a concentration of 10 mM stock solution. Each calibration level standard was prepared by diluting the stock solution in a mixture of PBS and acetonitrile (50 : 50 v/v). The samples for testing were prepared as follows: the volume of 1000 µL of PBS was added to the testing tube containing a weight of sample corresponding to 0.4 mM. The mixture was shaken at 1000 rpm at 20 °C for 24 h. The mixture was then filtered using a syringe polypropylene 0.45 µm filter. Samples and calibration standards are prepared using an automated system of a robotic arm (PAL-RTC, Switzerland). Then, the sample was analysed on chromatographic system (Vanquish UHPLC, Thermo Fisher Scientific, Germany) connected to the diode array detector and consequently to the charged aerosol detector (both Vanquish, Thermo Fisher Scientific, Germany), Thermo Scientific Accucore C8 (100 × 3 mm; 2.6 µm) column, using gradient elution with acetonitrile/methanol/5 mM formate buffer (pH = 3.00); flow: 1.0 cm^3 min^−1; column temperature: 40 °C; CAD temperature: 30 °C; sample volume: 5 mm^3.

A short description of data set [3]: Stability in rat plasma. In kind it is in vitro ADME. As for the experimental part: Compounds were prepared as 1.6 mg mL^−1 stock solutions in methanol. Then, 20 µL of stock solution was added to 1000 µL of rat plasma (BioIVT, Cat. No. RAT00PLLH-0102307), maintained at 37 °C. Aliquots (50 µL) withdrawn at 0, 8, and 24 h were analyzed by HPLC. An aliquot of plasma was extracted with methanol (450 µL) containing an internal standard, and the solution was vortexed (20 s) and centrifuged at 13 500 rpm for 10 min. The supernatant was transferred to an autosampler vial, and 10 µL was injected into an LC-MS system. The samples were analyzed using an Agilent 6230 TOF LC/MS. Samples were separated on a Waters ACQUITY UPLC CSH Phenyl-Hexyl column (100 × 2.1, 130 Å, 1.7 µm) at a flow rate of 0.3 mL min^−1. […]. The temperature, the flow rate of the nitrogen drying gas, the pressure of the nitrogen nebulizing gas, and the flow rate of the sheath gas were set at 325 °C, 10 L min^−1, 40 psi, […], and 11 L min^−1, respectively. Results are represented as a percentage of the compound remaining in spiked plasma.

In data set [4] the target is NMDA receptors. As to conditions: cited from earlier work; for Activity at NMDARs: C-17 ketone steroids.
Setting [5] is: PBS, PBS pH 7.4, 20 °C, 24 h, read-out: Solubility PBS, pH 7.4 (thermodynamic).

Values after ≈ are worked out from the molar mass of the structure shown. Counter-ions that a name gives are not always drawn. Like-named read-outs stand apart in the source and are kept apart here.

T1 sequence (Q00960 27-1482, other chains not shown): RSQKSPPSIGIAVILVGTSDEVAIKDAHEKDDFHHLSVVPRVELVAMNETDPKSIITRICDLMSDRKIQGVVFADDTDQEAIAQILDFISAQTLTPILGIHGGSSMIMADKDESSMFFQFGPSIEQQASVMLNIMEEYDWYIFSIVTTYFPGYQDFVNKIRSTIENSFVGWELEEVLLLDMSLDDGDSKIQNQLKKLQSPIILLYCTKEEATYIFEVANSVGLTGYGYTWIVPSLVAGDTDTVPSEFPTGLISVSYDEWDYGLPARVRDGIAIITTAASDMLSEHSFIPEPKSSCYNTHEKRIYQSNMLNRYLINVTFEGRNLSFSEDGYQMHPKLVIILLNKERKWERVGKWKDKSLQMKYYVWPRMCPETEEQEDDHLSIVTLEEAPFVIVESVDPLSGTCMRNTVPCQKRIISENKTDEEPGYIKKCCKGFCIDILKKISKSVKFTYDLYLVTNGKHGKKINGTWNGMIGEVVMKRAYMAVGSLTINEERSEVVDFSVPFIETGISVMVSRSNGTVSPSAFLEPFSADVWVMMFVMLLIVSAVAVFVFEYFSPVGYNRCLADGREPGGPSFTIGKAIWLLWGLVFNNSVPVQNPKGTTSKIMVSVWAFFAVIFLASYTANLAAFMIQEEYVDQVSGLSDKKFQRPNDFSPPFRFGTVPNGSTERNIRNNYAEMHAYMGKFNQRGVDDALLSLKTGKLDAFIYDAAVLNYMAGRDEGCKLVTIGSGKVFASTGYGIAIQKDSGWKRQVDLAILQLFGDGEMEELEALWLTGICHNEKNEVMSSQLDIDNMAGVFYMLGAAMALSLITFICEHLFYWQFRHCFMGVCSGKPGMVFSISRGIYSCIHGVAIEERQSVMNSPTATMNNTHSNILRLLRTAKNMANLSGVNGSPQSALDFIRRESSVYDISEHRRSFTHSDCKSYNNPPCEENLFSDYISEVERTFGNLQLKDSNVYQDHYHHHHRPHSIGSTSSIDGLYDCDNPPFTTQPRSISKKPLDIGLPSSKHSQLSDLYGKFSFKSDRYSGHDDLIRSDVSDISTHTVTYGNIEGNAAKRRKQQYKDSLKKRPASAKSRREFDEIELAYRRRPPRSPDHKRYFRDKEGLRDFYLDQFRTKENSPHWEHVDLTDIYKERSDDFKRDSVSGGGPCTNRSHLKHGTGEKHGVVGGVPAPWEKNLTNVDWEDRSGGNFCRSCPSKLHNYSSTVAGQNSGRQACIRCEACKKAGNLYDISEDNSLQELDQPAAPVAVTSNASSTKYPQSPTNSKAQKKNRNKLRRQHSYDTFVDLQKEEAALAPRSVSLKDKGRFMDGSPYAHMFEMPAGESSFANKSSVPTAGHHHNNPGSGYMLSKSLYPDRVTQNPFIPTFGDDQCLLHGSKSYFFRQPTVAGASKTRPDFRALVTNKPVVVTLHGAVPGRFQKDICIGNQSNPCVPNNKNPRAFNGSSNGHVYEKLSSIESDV

Take 20-oxo-pregn-5-en-3β-yl sulfate [PES]: in data set [1], the “E max ± SEM” value was 116 ± 10% and the “h ± SEM (apparent Hill coefficient)” value is listed as 1.5 ± 0.1.

In turn, `CC(=O)[C@H]1CC[C@H]2[C@@H]3CC=C4C[C@@H](OC(=O)CCCCC(=O)O)CC[C@]4(C)[C@H]3CC[C@]12C` [20-Oxo-PE-hAdi, 20-Oxo-pregn-5-en-3β-yl hemiadipate, reference compound] displayed a solubility (thermodynamic) at 24 h in data set [2] (Solubility PBS, pH 7.4 (thermodynamic)) of 20 ± 2 µM (≈ 8.89 µg/mL). Also, in data set [3] (rat, plasma), the “Stability in rat plasma (% remaining) 8 h” value is listed as 11 ± 0 % remaining and the “Stability in rat plasma (% remaining) 24 h” value turned out to be 2 ± 0 % remaining.

Consider `CC(=O)[C@H]1CC[C@H]2[C@@H]3CC=C4C[C@@H](OC(=O)CCCC(=O)O)CC[C@]4(C)[C@H]3CC[C@]12C` [20-Oxo-PE-hGlu, 20-Oxo-pregn-5-en-3β-yl hemiglutarate, reference compound], for which the thermodynamic solubility at 24 h in data set [2] (setting [5]) came out at 86 ± 1 µM (≈ 37 µg/mL). In data set [3] (rat plasma, 37 °C), the “Stability in rat plasma (% remaining) 8 h” value came to 44 ± 3 % remaining and the “Stability in rat plasma (% remaining) 24 h” value is given as 21 ± 1 % remaining.

On to `CC(=O)[C@H]1CC[C@H]2[C@@H]3CC=C4C[C@@H](OC(=O)CCC(=O)O)CC[C@]4(C)[C@H]3CC[C@]12C` [20-Oxo-PE-hSuc, 20-Oxo-pregn-5-en-3β-yl hemisuccinate, reference compound], for which the solubility (thermodynamic) at 24 h in data set [2] (setting [5]) stood at 277 ± 1 µM. Besides, in data set [3] (rat plasma, 37 °C), the “Stability in rat plasma (% remaining) 8 h” value came to 69 ± 1 % remaining and the “Stability in rat plasma (% remaining) 24 h” value turned out to be 50 ± 2 % remaining.

For the compound `CC(=O)[C@H]1CC[C@H]2[C@@H]3CC[C@@H]4C[C@H](OS(=O)(=O)O)CC[C@]4(C)[C@H]3CC[C@]12C` [PAS, 20-oxo-5β-pregnan-3α-yl sulfate], in data set [4] (in Fig. 1, read-out: IC50, negative allosteric modulation of NMDA receptors), the IC50 is 24.6 µM.

Turning to `C[C@]12CC[C@H](OS(=O)(=O)O)CC1=CCC1C2CC[C@]2(C)C(=O)CCC12` (some centres unmarked) [dehydroepiandrosterone sulfate], the “Activity at NMDARs” value in data set [4] was “inactive”.

As to `C[C@]12CC[C@H](O)CC1=CC[C@@H]1[C@@H]2CC[C@]2(C)C(=O)CC[C@@H]12` [dehydroepiandrosterone, 3β-hydroxy-androst-5-en-17-one], in data set [4], the “Activity at NMDARs” value is “inactive”.
